Reference: patent US6358885B1, “Substituted phenylheterocyclic herbicides” (Mississippi State University, priority 1992, dated 2002)

Assays:
[1] = test system: rape; experiment: Test C preemergence/postemergence greenhouse plant response rating 0 to 100; type: in vivo, Brassica napus; details: POSTEMERGENCE; for Plant response rating, Rape: 0 to 100 scale
Method in brief: (§1)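 Compounds in non-phytotoxic solvent went onto sandy loam before emergence (seeded one day earlier) or onto plants at the one-to-four leaf stage. Duck salad was treated via flood water (~2.5 cm, maintained) over silt loam.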

[2] = test system: blackgrass; experiment: Test B preemergence/postemergence greenhouse plant response rating 0 to 10; type: in vivo, Alopecurus myosuroides; details: 0 to 10 scale
Method in brief: (§2)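 Test chemicals, dissolved in a non-phytotoxic solvent, were applied to soil at planting and, at the same time, over foliage of seedlings at the one to four leaf stage.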

[3] = test system: crabgrass; experiment: Test C preemergence/postemergence greenhouse plant response rating 0 to 100; type: in vivo, Digitaria sanguinalis; details: POSTEMERGENCE; for Plant response rating, Crabgrass: 0 to 100 scale
Method in brief: as §1

[4] = test system: corn; experiment: Test B preemergence/postemergence greenhouse plant response rating 0 to 10; type: in vivo, Zea mays; details: 0 to 10 scale
Method in brief: as §2

[5] = test system: ryegrass; experiment: Test C preemergence/postemergence greenhouse plant response rating 0 to 100; type: in vivo, Lolium multiflorum; details: POSTEMERGENCE; for Plant response rating Ryegrass: 0 to 100 scale
Method in brief: as §1

[6] = test system: wheat; experiment: as above; type: in vivo, Triticum aestivum; details: POSTEMERGENCE; for Plant response rating, Wheat: 0 to 100 scale
Method in brief: as §1

[7] = test system: sugar beet; experiment: Test B preemergence/postemergence greenhouse plant response rating 0 to 10; type: in vivo, Beta vulgaris; details: 0 to 10 scale
Method in brief: as §2

[8] = test system: barnyardgrass; experiment: as above; type: in vivo, Echinochloa crus-galli; details: 0 to 10 scale
Method in brief: as §2

[9] = test system: sorghum; experiment: as above; type: in vivo, Sorghum bicolor; details: 0 to 10 scale
Method in brief: as §2

[10] = test system: rice; experiment: Test C flood test plant response rating 0 to 100; type: in vivo, Oryza sativa; details: for Plant response rating Rice Japonica: flood test species listed under POSTEMERGENCE, 0 to 100 scale
Method in brief: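 Compounds in non-phytotoxic solvent applied preemergence to sandy loam one day after planting, postemergence at the 1–4 leaf stage, or to ~2.5 cm floodwater over silt loam.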

[11] = test system: chickweed; experiment: Test B preemergence/postemergence greenhouse plant response rating 0 to 10; type: in vivo, Stellaria media; details: 0 to 10 scale
Method in brief: as §2

[12] = test system: wild oat; experiment: Test C preemergence/postemergence greenhouse plant response rating 0 to 100; type: in vivo, Avena fatua; details: POSTEMERGENCE; for Plant response rating, Wild oat: 0 to 100 scale
Method in brief: as §1

[13] = test system: corn; experiment: as above; type: in vivo, Zea mays; details: POSTEMERGENCE; for Plant response rating, Corn: 0 to 100 scale
Method in brief: as §1

[14] = test system: purple nutsedge; experiment: Test B preemergence/postemergence greenhouse plant response rating 0 to 10; type: in vivo, Cyperus rotundus; details: 0 to 10 scale
Method in brief: as §2

[15] = test system: barley; experiment: as above; type: in vivo, Hordeum vulgare; details: 0 to 10 scale
Method in brief: as §2

[16] = test system: velvetleaf; experiment: as above; type: in vivo, Abutilon theophrasti; details: 0 to 10 scale
Method in brief: as §2

[17] = test system: morningglory; experiment: Test C preemergence/postemergence greenhouse plant response rating 0 to 100; type: in vivo, Ipomoea hederacea; details: POSTEMERGENCE; for Plant response rating, Morningglory: 0 to 100 scale
Method in brief: as §1

[18] = test system: bedstraw; experiment: as above; type: in vivo, Galium aparine; details: POSTEMERGENCE; for Plant response rating, Bedstraw: 0 to 100 scale
Method in brief: as §1

For `COC(=O)c1cc(-c2nn3c(c2Cl)CCCC3)c(F)cc1Cl` [Compound 43], the “Plant response rating, Rape” value ([1]; 62 g/ha) was 100, the “Plant response rating, Rape” value ([1]; 250 g/ha) was 100 and the “Plant response rating (0 to 100), Rape” value ([1]; Rate 4 g/ha) was 80. The “Plant response rating (0 to 100), Rape” value ([1]; Rate 16 g/ha) was 100, the “Plant response rating, Blackgrass” value ([2]; POSTEMERGENCE, Rate 50 g/ha) was 7 and the “Plant response rating, Blackgrass” value ([2]; POSTEMERGENCE, Rate 200 g/ha) was 8. The “Plant response rating, Blackgrass” value ([2]; PREEMERGENCE, Rate 50 g/ha) was 2, the “Plant response rating, Blackgrass” value ([2]; Rate 200 g/ha, PREEMERGENCE) was 5 and the “Plant response rating, Crabgrass” value ([3]; 62 g/ha) was 20. For the same molecule, the “Plant response rating, Crabgrass” value ([3]; 250 g/ha) was 60, the “Plant response rating (0 to 100), Crabgrass” value ([3]; Rate 4 g/ha) was 10 and the “Plant response rating (0 to 100), Crabgrass” value ([3]; Rate 16 g/ha) was 20. For the same molecule, the “Plant response rating, Corn” value ([4]; POSTEMERGENCE, Rate 50 g/ha) was 8, the “Plant response rating, Corn” value ([4]; POSTEMERGENCE, Rate 200 g/ha) was 10 and the “Plant response rating, Corn” value ([4]; PREEMERGENCE, Rate 50 g/ha) was 0. For the same molecule, the “Plant response rating, Corn” value ([4]; Rate 200 g/ha, PREEMERGENCE) was 0, the “Plant response rating Ryegrass” value ([5]; 62 g/ha) was 50 and the “Plant response rating Ryegrass” value ([5]; 250 g/ha) was 85. For the same molecule, the “Plant response rating (0 to 100), Ryegrass” value ([5]; Rate 4 g/ha) was 30, the “Plant response rating (0 to 100), Ryegrass” value ([5]; Rate 16 g/ha) was 40 and the “Plant response rating, Wheat” value ([6]; 62 g/ha) was 50. For the same molecule, the “Plant response rating, Wheat” value ([6]; 250 g/ha) was 60, the “Plant response rating (0 to 100), Wheat” value ([6]; Rate 4 g/ha) was 20 and the “Plant response rating (0 to 100), Wheat” value ([6]; Rate 16 g/ha) was 40. The “Plant response rating, Sugar beet” value ([7]; POSTEMERGENCE, Rate 50 g/ha) was 10, the “Plant response rating, Sugar beet” value ([7]; PREEMERGENCE, Rate 50 g/ha) was 9 and the “Plant response rating, Sugar beet” value ([7]; Rate 200 g/ha, POSTEMERGENCE) was 10. The “Plant response rating, Sugar beet” value ([7]; Rate 200 g/ha, PREEMERGENCE) was 10, the “Plant response rating, Barnyardgrass” value ([8]; POSTEMERGENCE, Rate 50 g/ha) was 7 and the “Plant response rating, Barnyardgrass” value ([8]; POSTEMERGENCE, Rate 200 g/ha) was 9. The “Plant response rating, Barnyardgrass” value ([8]; PREEMERGENCE, Rate 50 g/ha) was 0, the “Plant response rating, Barnyardgrass” value ([8]; Rate 200 g/ha, PREEMERGENCE) was 2 and the “Plant response rating, Sorghum” value ([9]; POSTEMERGENCE, Rate 50 g/ha) was 5. The “Plant response rating, Sorghum” value ([9]; PREEMERGENCE, Rate 50 g/ha) was 0, the “Plant response rating, Sorghum” value ([9]; Rate 200 g/ha, POSTEMERGENCE) was 8 and the “Plant response rating, Sorghum” value ([9]; Rate 200 g/ha, PREEMERGENCE) was 2. For the same molecule, the “Plant response rating (0 to 100), Rice Japonica” value ([10]; POSTEMERGENCE section, flood test, Rate 4 g/ha) was 35, the “Plant response rating (0 to 100), Rice Japonica” value ([10]; Rate 16 g/ha, under POSTEMERGENCE head (flood test species)) was 60 and the “Plant response rating Rice Japonica” value ([10]; 62 g/ha) was 70. For the same molecule, the “Plant response rating Rice Japonica” value ([10]; 250 g/ha) was 75, the “Plant response rating, Chickweed” value ([11]; POSTEMERGENCE, Rate 200 g/ha) was 10 and the “Plant response rating, Chickweed” value ([11]; PREEMERGENCE, Rate 50 g/ha) was 0. For the same molecule, the “Plant response rating, Chickweed” value ([11]; Rate 200 g/ha, PREEMERGENCE) was 10, the “Plant response rating, Wild oat” value ([12]; 62 g/ha) was 50 and the “Plant response rating, Wild oat” value ([12]; 250 g/ha) was 60. For the same molecule, the “Plant response rating (0 to 100), Wild oat” value ([12]; Rate 4 g/ha) was 20, the “Plant response rating (0 to 100), Wild oat” value ([12]; Rate 16 g/ha) was 40 and the “Plant response rating, Corn” value ([13]; 62 g/ha) was 90. The “Plant response rating, Corn” value ([13]; 250 g/ha) was 90, the “Plant response rating (0 to 100), Corn” value ([13]; Rate 4 g/ha) was 20 and the “Plant response rating (0 to 100), Corn” value ([13]; Rate 16 g/ha) was 50. For the same molecule, the “Plant response rating, Nutsedge” value ([14]; POSTEMERGENCE, Rate 50 g/ha) was 3, the “Plant response rating, Nutsedge” value ([14]; PREEMERGENCE, Rate 50 g/ha) was 0 and the “Plant response rating, Nutsedge” value ([14]; Rate 200 g/ha, POSTEMERGENCE) was 3. For the same molecule, the “Plant response rating, Nutsedge” value ([14]; Rate 200 g/ha, PREEMERGENCE) was 0, the “Plant response rating, Barley” value ([15]; POSTEMERGENCE, Rate 50 g/ha) was 3 and the “Plant response rating, Barley” value ([15]; POSTEMERGENCE, Rate 200 g/ha) was 3. The “Plant response rating, Barley” value ([15]; PREEMERGENCE, Rate 50 g/ha) was 0, the “Plant response rating, Barley” value ([15]; Rate 200 g/ha, PREEMERGENCE) was 0 and the “Plant response rating, Velvetleaf” value ([16]; POSTEMERGENCE, Rate 50 g/ha) was 10. For the same molecule, the “Plant response rating, Velvetleaf” value ([16]; PREEMERGENCE, Rate 50 g/ha) was 5, the “Plant response rating, Velvetleaf” value ([16]; Rate 200 g/ha, POSTEMERGENCE) was 10 and the “Plant response rating, Velvetleaf” value ([16]; Rate 200 g/ha, PREEMERGENCE) was 10. The “Plant response rating, Morningglory” value ([17]; 62 g/ha) was 90, the “Plant response rating, Morningglory” value ([17]; 250 g/ha) was 100 and the “Plant response rating (0 to 100), Morningglory” value ([17]; Rate 4 g/ha) was 40. The “Plant response rating (0 to 100), Morningglory” value ([17]; Rate 16 g/ha) was 60, the “Plant response rating, Bedstraw” value ([18]; 62 g/ha) was 70 and the “Plant response rating, Bedstraw” value ([18]; 250 g/ha) was 100. The “Plant response rating (0 to 100), Bedstraw” value ([18]; Rate 4 g/ha) was 40 and the “Plant response rating (0 to 100), Bedstraw” value ([18]; Rate 16 g/ha) was 60.
